18 compounds from patent US9850251B2, “Imidazole derivative used as antiviral agent and use therof in preparation of medicament” (priority 2013, dated 2017) can be followed below.

In data set [1] the test system is RSV respiratory tract virus (A long strain). In words: RSV long CPE assay (cytopathic effect assay), EC50. The format is cell-based. Conditions: human respiratory syncytial virus, HEp-2, 120 h; Hep2 cells infected with RSV A long strain, 5 days, CCK-8 readout. The method, then:
(§1) Detect EC50 and CC50 values of anti RSV respiratory tract virus compounds through the cytopathic effect assay.
Virus strain: RSV respiratory tract virus (A long strain)
(§2) The cell plate was centrifugated (300 rpm) to make the cells adherent to the wall, placed into a 37° C., 5% CO2 incubator overnight.
(§3) 1) the compound in 100% DMSO underwent a semi logarithmic dilution, then was added to the cell plate with a Echo liquid handler. Ensure that the final concentration of DMSO was 1%;
(§4) 2) Cell-control hole: no compound and viruse were added; virus-control hole: no compound was added.
dilute RSV viruses to 100 TCID50/30 μL with medium cultured with 4° C. cells, and then add the diluted viruses to a cell plate (30 μL/hole) with Multidrop® automatic liquid distributor, and then placed into a 37° C., 5% CO2 culture incubator for 5 days.
1) after 5 days, observe the pathological change in each hole.
(§5) 2) add CCK-8 (Dojindo-CK04-20, 6 μL/hole) to 384 well plate with Multidrop® automatic liquid distributor;
(§6) 3) place the plate at a 37° C., 5% CO2 culture incubator for 3˜4 h, read the absorbance value with SPECTRA max 340PC_Molecular device at 450 nm and 630 nm;

Data set [2] in a line: RSV long CPE assay (cytopathic effect assay), CC50 toxicity in vitro. Conditions: human, Hep2 cells, CCK-8 readout, top concentration 100 μM. The format is cell-based. The method, then: as §1, §2, §3, §4, §5, §6

`CC(C)OC(=O)N1CC2(C1)C(=O)N(Cc1nc3c(n1CCCC(F)(F)F)CCCC3)c1ccc(Cl)cc12` [Embodiment 80, Isopropyl 5′-chloro-2′-oxo-1′-((1-(4,4,4-trifluorobutyl)-4,5,6,7-tetrahydro-1H-benzo[d]imidazol-2-yl)methyl)spiro[azetidine-3,3′-indoline]-1-carboxylate] displayed an EC50 in data set [1] of less than 0.1 µM. Moreover, in data set [2], the CC50 at 5 days was greater than 100 µM.
The like results for `CC(C)OC(=O)N1CC2(C1)C(=O)N(Cc1nc3c(n1CCCC(F)(F)F)CCCC3)c1cc(Cl)ccc12` [Embodiment 81, Isopropyl 6′-chloro-2′-oxo-1′-((1-(4,4,4-trifluorobutyl)-4,5,6,7-tetrahydro-1H-benzo[d]imidazol-2-yl)methyl)spiro[azetidine-3,3′-indoline]-1-carboxylate] were, in that order, less than 0.1 µM and greater than 100 µM.
With `CC(C)OC(=O)N1CC2(C1)C(=O)N(Cc1nc3c(n1CCCC(F)(F)F)CCCC3)c1cc(F)ccc12` [Embodiment 82, Isopropyl 6′-fluoro-2′-oxo-1′-((1-(4,4,4-trifluorobutyl)-4,5,6,7-tetrahydro-1H-benzo[d]imidazol-2-yl)methyl)spiro[azetidine-3,3′-indoline]-1-carboxylate], the EC50 in data set [1] was less than 0.1 µM. Also, in data set [2], the CC50 at 5 days was greater than 100 µM.
Consider `CCOC(=O)N1CC2(C1)C(=O)N(Cc1nc3c(n1CCCC(F)(F)F)CCCC3)c1cc(F)ccc12` [Embodiment 83, Ethyl 6′-fluoro-2′-oxo-1′-((1-(4,4,4-trifluorobutyl)-4,5,6,7-tetrahydro-1H-benzo[d]imidazol-2-yl)methyl)spiro[azetidine-3,3′-indoline]-1-carboxylate], for which, in data set [1], the EC50 is less than 0.1 µM. This compound registered a CC50 at 5 days in data set [2] greater than 100 µM.
The like results for `O=C(C1CC1)N1CC2(C1)C(=O)N(Cc1nc3c(n1CCCC(F)(F)F)CCCC3)c1cc(F)ccc12` [Embodiment 84, 1-(Cyclopropanecarbonyl)-6′-fluoro-1′-((1-(4,4,4-trifluorobutyl)-4,5,6,7-tetrahydro-1H-benzo[d]imidazol-2-yl)methyl)spiro[azetidine-3,3′-indoline]-2′-one] were, in that order, less than 0.1 µM and greater than 100 µM.
For the compound `CC(C)OC(=O)N1CC2(C1)C(=O)N(Cc1nc3c(n1CCCCO)CCCC3)c1cccc(Cl)c12` [Embodiment 85, Isopropyl 4′-chloro-1′-((1-(4-hydroxybutyl)-4,5,6,7-tetrahydro-1H-benzo[d]imidazol-2-yl)methyl)-2′-oxospiro[azetidine-3,3′-indoline]-1-carboxylate], the EC50 in data set [1] was less than 0.1 µM. The CC50 in data set [2] (5 days) is greater than 100 µM.
As to `CC(C)OC(=O)N1CC2(C1)C(=O)N(Cc1nc3c(n1CCCC(F)(F)F)CCCC3)c1cccc(Cl)c12` [Embodiment 86, Isopropyl 4′-chloro-2′-oxo-1′-((1-(4,4,4-trifluorobutyl)-4,5,6,7-tetrahydro-1H-benzo[d]imidazol-2-yl)methyl)spiro[azetidine-3,3′-indoline]-1-carboxylate], in data set [1], the EC50 is less than 0.1 µM. The same compound registered a CC50 at 5 days in data set [2] greater than 100 µM.
The like results for `CCOC(=O)N1CC2(C1)C(=O)N(Cc1nc3c(n1CCCC(F)(F)F)CCCC3)c1cnccc12` [Embodiment 87, Ethyl 2′-oxo-1′-((1-(4,4,4-trifluorobutyl)-4,5,6,7-tetrahydro-1H-benzo[d]imidazol-2-yl)methyl)-1′,2′-dihydrospiro[azetidine-3,3′-pyrrolo[2,3-c]pyridine]-1-carboxylate] were, in that order, less than 0.1 µM and greater than 100 µM.
For `CC(C)OC(=O)N1CC2(C1)C(=O)N(Cc1nc3c(n1CCCC(F)(F)F)CCCC3)c1cnccc12` [Embodiment 88, Isopropyl 2′-oxo-1′-((1-(4,4,4-trifluorobutyl)-4,5,6,7-tetrahydro-1H-benzo[d]imidazol-2-yl)methyl)-1′,2′-dihydrospiro[azetidine-3,3′-pyrrolo[2,3-c]pyridine]-1-carboxylate], the EC50 in data set [1] is less than 0.1 µM. In data set [2], this compound returned a CC50 at 5 days greater than 100 µM.
The like results for `O=C(C1CC1)N1CC2(C1)C(=O)N(Cc1nc3c(n1CCCC(F)(F)F)CCCC3)c1cnccc12` [Embodiment 89, 1-(Cyclopropanecarbonyl)-1′-((1-(4,4,4-trifluorobutyl)-4,5,6,7-tetrahydro-1H-benzo[d]imidazol-2-yl)methyl)spiro[azetidine-3,3′-pyrrolo[2,3-c]pyridine]-2′(1′H)-one] were, in that order, less than 0.1 µM and greater than 100 µM.
For `O=CN1CC2(C1)C(=O)N(Cc1nc3c(n1CCCC(F)(F)F)CCCC3)c1ccccc12` [Embodiment 90, 2′-Oxo-1′-((1-(4,4,4-trifluorobutyl)-4,5,6,7-tetrahydro-1H-benzo[d]imidazol-2-yl)methyl)spiro[azetidine-3,3′-indoline]-1-carbaldehyde] the same measures were less than 0.1 µM and greater than 100 µM.
Compound `CC1(C(=O)N2CC3(C2)C(=O)N(Cc2nc4c(n2CCCC(F)(F)F)CCCC4)c2ccccc23)CC1` [Embodiment 91] displayed an EC50 in data set [1] of less than 0.1 µM. The compound also registered a CC50 at 5 days in data set [2] greater than 100 µM.
For `CC(=O)N1CC2(C1)C(=O)N(Cc1nc3c(n1CCCC(F)(F)F)CCCC3)c1ccccc12` [Embodiment 92, 1-Acetyl-1′-((1-(4,4,4-trifluorobutyl)-4,5,6,7-tetrahydro-1H-benzo[d]imidazol-2-yl)methyl)spiro[azetidine-3,3′-indoline]-2′-one] the same measures were less than 0.1 µM and greater than 100 µM.
The like results for `O=C(C1CC1)N1CC2(C1)C(=O)N(Cc1nc3c(n1CCCC(F)(F)F)CCCC3)c1ccccc12` [Embodiment 93, 1-(Cyclopropanecarbonyl)-1′-((1-(4,4,4-trifluorobutyl)-4,5,6,7-tetrahydro-1H-benzo[d]imidazol-2-yl)methyl)spiro[azetidine-3,3′-indoline]-2′-one] were, in that order, less than 0.1 µM and greater than 100 µM.
The compound `CCC(=O)N1CC2(C1)C(=O)N(Cc1nc3c(n1CCCC(F)(F)F)CCCC3)c1ccccc12` [Embodiment 94, 1-Propionyl-1′-((1-(4,4,4-trifluorobutyl)-4,5,6,7-tetrahydro-1H-benzo[d]imidazol-2-yl)methyl)spiro[azetidine-3,3′-indoline]-2′-one] yielded an EC50 in data set [1] of less than 0.1 µM. This compound gave a CC50 at 5 days in data set [2] greater than 100 µM.
The compound `CC(C)C(=O)N1CC2(C1)C(=O)N(Cc1nc3c(n1CCCC(F)(F)F)CCCC3)c1ccccc12` [Embodiment 95, 1-Isobutyryl-1′-((1-(4,4,4-trifluorobutyl)-4,5,6,7-tetrahydro-1H-benzo[d]imidazol-2-yl)methyl)spiro[azetidine-3,3′-indoline]-2′-one] came in with an EC50 in data set [1] of less than 0.1 µM. In data set [2], this compound showed a CC50 at 5 days greater than 100 µM.
In data set [1], `O=C(C(F)F)N1CC2(C1)C(=O)N(Cc1nc3c(n1CCCC(F)(F)F)CCCC3)c1ccccc12` [Embodiment 96, 1-(2,2-Difluoroacetyl)-1′-((1-(4,4,4-trifluorobutyl)-4,5,6,7-tetrahydro-1H-benzo[d]imidazol-2-yl)methyl)spiro[azetidine-3,3′-indoline]-2′-one] displayed an EC50 of less than 0.1 µM. In data set [2], this compound yielded a CC50 at 5 days greater than 100 µM.
For `CS(=O)(=O)N1CC2(C1)C(=O)N(Cc1nc3c(n1CCCC(F)(F)F)CCCC3)c1ccccc12` [Embodiment 97, 1-(Methylsulfonyl)-1′-((1-(4,4,4-trifluorobutyl)-4,5,6,7-tetrahydro-1H-benzo[d]imidazol-2-yl)methyl)spiro[azetidine-3,3′-indoline]-2′-one] the same measures were less than 0.1 µM and greater than 100 µM.

The term EC50 denotes the concentration at which the effect is half-maximal. A word on the CC50: it is the concentration at which the toxic effect on the cells reaches its halfway point. Low values mean greater toxicity to the cells, high ones lower toxicity to the cells.
